Measured values taken from patent publication US8748426B2, “Inhibitors of diacylglycerol acyl transferase” (Piramal Enterprises Limited, priority 2009, dated 2014).

Target: T1, hDGAT1 (Homo sapiens, UniProt O75907)
T1 sequence (O75907 1-488): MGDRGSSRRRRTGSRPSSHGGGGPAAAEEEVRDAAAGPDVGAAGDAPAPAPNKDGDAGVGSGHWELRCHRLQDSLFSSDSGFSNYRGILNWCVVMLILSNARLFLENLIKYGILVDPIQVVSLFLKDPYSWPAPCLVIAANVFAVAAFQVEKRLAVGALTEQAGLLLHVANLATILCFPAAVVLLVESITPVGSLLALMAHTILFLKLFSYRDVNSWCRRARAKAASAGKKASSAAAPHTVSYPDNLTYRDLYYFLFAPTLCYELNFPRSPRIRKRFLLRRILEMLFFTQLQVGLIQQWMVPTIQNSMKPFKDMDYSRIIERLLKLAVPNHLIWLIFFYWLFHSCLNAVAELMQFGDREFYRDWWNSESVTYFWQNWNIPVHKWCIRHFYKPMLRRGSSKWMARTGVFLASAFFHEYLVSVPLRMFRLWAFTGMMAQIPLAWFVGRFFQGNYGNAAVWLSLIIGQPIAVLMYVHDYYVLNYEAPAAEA
Assay: In-vitro DGAT1 assay (14C oleoyl CoA, hDGAT1 microsomes from Sf9 cells)
Conditions: for inhibition at 1 µM: read-out: % Inhibition of hDGAT1; for % Inhibition of hDGAT1: at 1 μM
Experimental: Sf9 cells were seeded in spinner flasks on day 0 at a cell density of 1×10^6 and infected on day 1 with hDGAT1 baculovirus at a multiplicity of infection (MOI) of 5 and a cell density of 2×10^6. On day 3 (or 66-72 h), cells were harvested and centrifuged at 2500×g for 10 min. Pellet was resuspended in lysis buffer (100 mM sucrose, 50 mM KCl, 40 mM KH2PO4, 30 mM EDTA, pH 7.2) and passed through 21-gauge needle approximately 10 times. […] The supernatant was subjected to centrifugation at 35,000 rpm in a Beckman Ti-45 rotor at 4° C. for 1 h. The resultant pellet containing the microsomes wasere resuspended overnight in 1 mL of lysis buffer and total protein concentration was estimated using Bradford Reagent. Microsomes were aliquoted and stored at −80° C.
Frozen aliquots of hDGAT1 containing microsomes were thawed (5-10 mg/mL total protein) on ice and diluted to a working stock of 1 mg/mL with DGAT Assay Buffer (DAB).
The assay was performed in duplicates in a reaction volume of 100 μL. […] Procedure:
The reaction was started by the addition of 2.5 μL of 1 mg/mL of microsomes (iv) to the mixture and incubated at 37° C. for 10 min. […] The mixture was vortexed and the triglycerides formed were extracted into the organic heptane phase.

Row | Compound | inhibition at 1 µM | % Inhibition of hDGAT1
1 | CC(C)[C@@H](C(=O)O)N1Cc2cc(-c3ccc(NC(=O)NCc4ccccc4)cc3)ccc2C1=O [Example 233, (S)-2-(5-(4-(3-Benzylureido)phenyl)-1-oxoisoindolin-2-yl)-3-methylbutanoic acid] | 10 to 50% | –
2 | CC(C)[C@@H](C(=O)O)N1Cc2cc(-c3ccc(NC(=O)Nc4ccccc4F)cc3)ccc2C1=O [Example 227, (S)-2-(5-(4-(3-(2-Fluorophenyl)ureido)phenyl)-1-oxoisoindolin-2-yl)-3-methyl butanoic acid] | > 50% | –
3 | CC(C)[C@@H](C(=O)O)N1Cc2ccc(-c3ccc(NC(=O)c4ccc(N5CCCCC5)nc4)cc3)cc2C1=O [Example 215, (S)-3-Methyl-2-(1-oxo-6-(4-(6-(piperidin-1-yl)nicotinamido)phenyl)isoindolin-2-yl)butanoic acid] | > 50% | –
4 | CC(C)[C@@H](C(=O)O)N1Cc2ccc(-c3ccc(NC(=O)c4ccc(OC(F)(F)F)cc4)cc3Cl)cc2C1=O [Example 488, (S)-2-(6-(2-Chloro-4-(4-(trifluoromethoxy)benzamido)phenyl)-1-oxoisoindolin-2-yl)-3-methylbutanoic acid] | > 50% | –
5 | CC(C)[C@@H](C(=O)O)N1Cc2cc(-c3ccc(NC(=O)c4ccc(C(F)(F)F)cc4)cc3)ccc2C1=O [Example 309, (S)-3-Methyl-2-(1-oxo-5-(4-(4-(trifluoromethyl)benzamido)phenyl)isoindolin-2-yl)butanoic acid] | 10 to 50% | –
6 | CC(C)[C@@H](C(=O)O)N1Cc2cc(-c3ccc(NC(=O)Nc4cccc(C(F)(F)F)c4)cc3)ccc2C1=O [Example 247, (S)-3-Methyl-2-(1-oxo-5-(4-(3-(3-(trifluoromethyl)phenyl)ureido)phenyl)isoindolin-2-yl)butanoic acid] | > 50% | –
7 | COc1ccccc1C(=O)Nc1ccc(-c2ccc3c(c2)C(=O)N([C@H](C(=O)O)C(C)C)C3)cc1 [Example 160, (S)-2-(6-(4-(2-Methoxybenzamido)phenyl)-1-oxoisoindolin-2-yl)-3-methyl butanoic acid] | > 50% | –
8 | CC(C)[C@@H](C(=O)O)N1Cc2ccc(-c3ccc(NC(=O)c4ccc(N5CCCC5)nc4)cc3)cc2C1=O [Example 217, (S)-3-Methyl-2-(1-oxo-6-(4-(6-(pyrrolidin-1-yl)nicotinamido)phenyl)isoindolin-2-yl)butanoic acid] | > 50% | –
9 | Cc1ccccc1NC(=S)Nc1ccc(-c2ccc3c(c2)C(=O)N([C@H](C(=O)O)C(C)C)C3)cc1 [Example 72, (S)-3-Methyl-2-(1-oxo-6-(4-(3-o-tolylthioureido)phenyl)isoindolin-2-yl)butanoic acid] | > 50% | –
10 | CC(C)[C@@H](C(=O)O)N1Cc2cc(-c3ccc(NC(=O)c4ccc(Cl)cc4)cc3)ccc2C1=O [Example 321, (S)-2-(5-(4-(4-Chlorobenzamido)phenyl)-1-oxoisoindolin-2-yl)-3-methylbutanoic acid] | > 50% | –
11 | CC(C)(C(=O)O)N1Cc2ccc(-c3ccc(NC(=O)c4ccc(OC(F)(F)F)cc4)cc3)cc2C1=O [Example 523, 2-Methyl-2-(1-oxo-6-(4-(4-(trifluoromethoxy)benzamido)phenyl)isoindolin-2-yl)propanoic acid] | 10 to 50% | –
12 | COC[C@@H](C(=O)O)N1Cc2cc(-c3ccc(NC(=O)Nc4cccc(C(F)(F)F)c4)cc3)ccc2C1=O [Example 385, (S)-3-Methoxy-2-(1-oxo-5-(4-(3-(3-(trifluoromethyl)phenyl)ureido)phenyl)isoindolin-2-yl)propanoic acid] | 10 to 50% | –
13 | CCCCOc1ccc(C(=O)Nc2ccc(-c3ccc4c(c3)C(=O)N([C@H](C(=O)O)C(C)C)C4)cc2F)cc1 [Example 452, (S)-2-(6-(4-(4-Butoxybenzamido)-3-fluorophenyl)-1-oxoisoindolin-2-yl)-3-methyl butanoic acid] | > 50% | –
14 | COc1ccc(S(=O)(=O)Nc2ccc(-c3ccc4c(c3)CN([C@H](C(=O)O)C(C)C)C4=O)cc2)cc1 [Example 297, (S)-2-(5-(4-(4-Methoxyphenylsulfonamido)phenyl)-1-oxoisoindolin-2-yl)-3-methylbutanoic acid] | 10 to 50% | –
15 | (S)-2-(5-(4-(3-(2-Fluorophenyl)thioureido)phenyl)-1-oxoisoindolin-2-yl)-3-methylbutanoic acid [Example 257] | – | + (10-50% Inhibition)
16 | CC(C)[C@@H](C(=O)O)N1Cc2ccc(-c3ccc(NC(=O)Nc4cccc(C(F)(F)F)c4)cc3)cc2C1=O [Example 38, (S)-3-Methyl-2-(1-oxo-6-(4-(3-(3-(trifluoromethyl)phenyl)ureido)phenyl)isoindolin-2-yl)butanoic acid] | > 50% | –

Row | Compound | inhibition at 1 µM | % Inhibition of hDGAT1
17 | CC(C)[C@@H](C(=O)O)N1Cc2ccc(-c3ccc(NC(=S)Nc4ccccc4F)cc3)cc2C1=O [Example 52, (S)-2-(6-(4-(3-(2-Fluorophenyl)thioureido)phenyl)-1-oxoisoindolin-2-yl)-3-methylbutanoic acid] | 10 to 50% | –
18 | CC(C)[C@@H](C(=O)O)N1Cc2ccc(-c3ccc(NC(=O)NCc4ccccc4)cc3)cc2C1=O [Example 18, (S)-2-(6-(4-(3-Benzylureido)phenyl)-1-oxoisoindolin-2-yl)-3-methylbutanoic acid] | 10 to 50% | –
19 | CC(C)[C@@H](C(=O)O)N1Cc2ccc(-c3ccc(NC(=O)Nc4cccc(F)c4)cc3)cc2C1=O [Example 14, (S)-2-(6-(4-(3-(3-Fluorophenyl)ureido)phenyl)-1-oxoisoindolin-2-yl)-3-methyl butanoic acid] | 10 to 50% | –
20 | Cc1ccc(C(=O)Nc2ccc(-c3ccc4c(c3)CN([C@H](C(=O)O)C(C)C)C4=O)cc2)cc1 [Example 319, (S)-3-Methyl-2-(5-(4-(4-methylbenzamido)phenyl)-1-oxoisoindolin-2-yl)butanoic acid] | 10 to 50% | –
21 | CC(C)[C@@H](C(=O)O)N1Cc2ccc(-c3ccc(NC(=O)Nc4ccc(F)c(F)c4)c(F)c3)cc2C1=O [Example 440, (S)-2-(6-(4-(3-(3,4-Difluorophenyl)ureido)-3-fluorophenyl)-1-oxoisoindolin-2-yl)-3-methylbutanoic acid] | > 50% | –
22 | CC(C)[C@@H](C(=O)O)N1Cc2ccc(-c3ccc(NC(=O)c4ccc5ccccc5c4)cc3C(F)(F)F)cc2C1=O [Example 428, (S)-2-(6-(4-(2-Naphthamido)-2-(trifluoromethyl)phenyl)-1-oxoisoindolin-2-yl)-3-methylbutanoic acid] | 10 to 50% | –
23 | CC(C)[C@@H](C(=O)O)N1Cc2ccc(-c3ccc(NC(=O)c4ccc(C(C)(C)C)cc4)nn3)cc2C1=O [Example 498, (S)-2-(6-(6-(4-tert-Butylbenzamido)pyridazin-3-yl)-1-oxoisoindolin-2-yl)-3-methylbutanoic acid] | > 50% | –
24 | CC(C)[C@@H](C(=O)O)N1Cc2ccc(-c3ccc(NS(=O)(=O)c4ccc(C#N)cc4)cc3)cc2C1=O [Example 80, (S)-2-(6-(4-(4-Cyanophenylsulfonamido)phenyl)-1-oxoisoindolin-2-yl)-3-methyl butanoic acid] | 10 to 50% | –
25 | CCCCCc1ccc(C(=O)Nc2ccc(-c3ccc4c(c3)C(=O)N([C@H](C(=O)O)C(C)C)C4)c(Cl)c2)cc1 [Example 486, (S)-2-(6-(2-Chloro-4-(4-pentylbenzamido)phenyl)-1-oxoisoindolin-2-yl)-3-methylbutanoic acid] | > 50% | –
26 | CC(C)[C@@H](C(=O)O)N1Cc2ccc(-c3ccc(NC(=O)c4ncc(-c5ccccc5)s4)cn3)cc2C1=O [Example 637, (S)-3-Methyl-2-(1-oxo-6-(5-(5-phenylthiazole-2-carboxamido)pyridin-2-yl)isoindolin-2-yl)butanoic acid] | > 50% | –
27 | O=C(Nc1ccc(-c2ccc3c(c2)C(=O)N(C2(C(=O)O)CCC2)C3)cc1)c1ccc(C(F)(F)F)cc1 [Example 580, 1-(1-Oxo-6-(4-(4-(trifluoromethyl)benzamido)phenyl)isoindolin-2-yl)cyclo butane carboxylic acid] | > 50% | –
28 | O=C(Nc1ccc(-c2ccc3c(c2)C(=O)N([C@H]2CC[C@H](C(=O)O)CC2)C3)cc1)c1ccc(C(F)(F)F)cc1 [Example 563, (1r,4r)-4-(1-Oxo-6-(4-(4-(trifluoromethyl)benzamido)phenyl)isoindolin-2-yl)cyclohexanecarboxylic acid] | – | + (10-50% Inhibition)
29 | COc1cc(C(=O)Nc2ccc(-c3ccc4c(c3)C(=O)N([C@H](C(=O)O)C(C)C)C4)cc2)cc(OC)c1OC [Example 144, (S)-3-Methyl-2-(1-oxo-6-(4-(3,4,5-trimethoxybenzamido)phenyl)isoindolin-2-yl)butanoic acid] | > 50% | –
30 | CC(C)[C@@H](C(=O)O)N1Cc2ccc(-c3ccc(NC(=O)c4ccccc4Cl)cc3)cc2C1=O [Example 132, (S)-2-(6-(4-(2-Chlorobenzamido)phenyl)-1-oxoisoindolin-2-yl)-3-methyl butanoic acid] | 10 to 50% | –
31 | CC(C)[C@@H](C(=O)O)N1Cc2cc(-c3ccc(NS(=O)(=O)c4ccc(C(F)(F)F)cc4)cc3)ccc2C1=O [Example 299, (S)-3-Methyl-2-(1-oxo-5-(4-(4-(trifluoromethyl)phenylsulfonamido)phenyl)isoindolin-2-yl)butanoic acid] | 10 to 50% | –
32 | CC(C)[C@@H](C(=O)O)N1Cc2ccc(-c3ccc(NC(=O)c4ccc(Cl)cc4Cl)cc3)cc2C1=O [Example 134, (S)-2-(6-(4-(2,4-Dichlorobenzamido)phenyl)-1-oxoisoindolin-2-yl)-3-methyl butanoic acid] | 10 to 50% | –
